In patent publication US6664274B1, “Piperidine derivatives as serotonine reuptake inhibitors” (Eli Lilly and Company, priority 1999, dated 2003):
Structures can show the parent of a compound that is named as a salt.

- melting point: 80 to 85 °C
Compound: OC(C1CCCCC1)C(CCN1CC=C(c2cccc3sccc23)CC1)c1ccccn1 (stereo not shown) (as salt: oxalate)
